Earlier results in patent US12295943B2 (Closed Loop Medicine Ltd., priority 2023, dated 2025).
Read-outs that look alike come from different tables or passages of the source.

What was measured:
[1] = test system: metabolic enzymes or transport mechanisms; conditions: in vitro
[2] = test system: patients with nonvalvular AF
[3] = not given; remark: listed apart in the source
[4] = not given; remark: listed apart in the source
[5] = for trough plasma level range: steady state
[6] = not given; remark: listed apart in the source
CYP3A4 = CYP3A4 (Homo sapiens, UniProt P08684); conditions: CYP3A4, linked with P-glycoprotein transporter
Chain of CYP3A4 (P08684 whole entry): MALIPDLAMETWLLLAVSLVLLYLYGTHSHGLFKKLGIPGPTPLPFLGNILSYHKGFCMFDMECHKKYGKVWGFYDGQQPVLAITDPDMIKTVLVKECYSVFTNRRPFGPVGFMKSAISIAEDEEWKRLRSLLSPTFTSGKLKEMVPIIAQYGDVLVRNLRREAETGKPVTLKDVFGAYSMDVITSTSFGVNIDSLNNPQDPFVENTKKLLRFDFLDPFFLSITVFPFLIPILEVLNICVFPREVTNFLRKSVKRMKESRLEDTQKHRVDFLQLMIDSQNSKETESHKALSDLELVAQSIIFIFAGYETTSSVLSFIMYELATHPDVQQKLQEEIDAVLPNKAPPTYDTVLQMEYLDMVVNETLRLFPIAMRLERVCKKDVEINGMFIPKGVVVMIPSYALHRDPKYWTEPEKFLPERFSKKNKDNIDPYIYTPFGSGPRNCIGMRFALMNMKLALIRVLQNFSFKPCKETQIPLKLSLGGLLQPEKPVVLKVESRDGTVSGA

[7] = in vivo
stroke = conditions: AF patients
[8] = high body weight (≥120 kg) vs reference group
[9] = low body weight (≤50 kg) vs reference group (65-85 kg)

COc1ccc(-n2nc(C(N)=O)c3c2C(=O)N(c2ccc(N4CCCCC4=O)cc2)CC3)cc1 [Apixaban]
increase in mean apixaban AUC 0-∞ (with Clarithromycin): 1.6 fold | increase in mean apixaban Cmax (with Clarithromycin): 1.3 fold | increase in AUC (with Clarithromycin (Table 2)): ~50% increase in Cmax and AUC | increase in Cmax (with Clarithromycin (Table 2)): ~50% increase in Cmax and AUC | increase in AUC (with Diltiazem): ~40% increase in AUC | increase in AUC (with Ketaconazole or other CYP 3A4/PgP inhibitors): ~100% increase in AUC | increase in exposure (drug levels) (with Ketoconazole (CYP 3A4 inhibitor)): ~2 fold | decrease in AUC (with Riampin or other CYP 3A4 inducers): ~50% decrease in AUC | decrease in exposure (with rifampicin): ~50% | inhibition or induction of metabolic enzymes or transport mechanisms [1]: does not inhibit or induce | efficacy compared with warfarin [2]: superior to warfarin | risk of intracranial bleeds compared with warfarin [2]: small reduction | lower apixaban AUC0-∞ [3, 8]: ~23% | lower apixaban Cmax [3, 8]: approximately 31% | higher AUC0-∞ [3, 9]: ~20% | higher maximum apixaban plasma concentration (Cmax) [3, 9]: approximately 27% | AGEP ([4]; age coefficient on non-renal clearance, AGEREF 60 years): 0.267 | VC/F ([4]; apparent central volume of distribution): 32.1 L | Q/F ([4]; apparent inter-compartmental clearance): 1.62 L/h | VP/F ([4]; apparent peripheral volume of distribution): 19.8 L | CLNR/F (Ref) ([4]; non-renal component of apparent clearance): 2.52 L/h | θ1, θ2 ([4]; power coefficients for CrCL versus CL/F): 1.0 | ┌ ([4]; shape parameter of dose versus relative bioavailability): 0.853 | WTP ([4]; weight coefficient on Vc/F, WTref 85.0 kg): 0.523 | trough plasma level range ([5]; 2.5 mg dose): 20 to 180 ng/mL | trough plasma level range ([5]; 5 mg dose): 10 to 310 ng/mL | variability in drug plasma levels across the population for a given dose ([5]; in vivo): 6-10 FOLD | observed drug plasma levels lower in the evening than in the morning ([6]; evening versus morning): ~50% | coefficient of variance for AUC of the plasma level time profile ([6]; healthy human volunteers): ~30% | coefficient of variance for Cmax ([6]; healthy human volunteers): ~30% | direct intestinal excretion into the faeces, unchanged drug ([6]; human, in vivo): 34% | dose excreted by renal route ([6]; human, in vivo): 20-25% | elimination via metabolism ([6]; human, in vivo): ~20% | renal clearance ([6]; human, in vivo): 15 mL/min | renal clearance as share of GFR ([6]; human, in vivo): ~12 % of GFR | total body clearance ([6]; human, in vivo): 50 mL/min | total body clearance as share of liver blood flow ([6]; human, in vivo): ~3 % liver blood flow | absolute oral bioavailability ([6]; human, in vivo, po): ~50% | half-life after iv or oral solution ([6]; iv or oral solution): ~5 h | time of maximum concentration after oral administration ([6]; oral, without food): 3 to 4 h | time of maximum concentration, range ([6]; oral, without food): 1 to 6 h | increase in levels at steady state compared to the first dose ([6]; repeated administration): ~65% | time to steady state after repeated administration ([6]; repeated administration): ≤ 3 days | delay of maximum concentration by food ([6]; with food): ~1 h | time of maximum concentration with food, range ([6]; with food): 1 to 9 h | substrate status (CYP3A4): substrate primarily for CYP3A4 | principle side effect [7]: increased bleeding tendency, with undesired haemorrhage, sometimes fatal

[H]/N=C(/N)c1ccc(NCc2nc3cc(C(=O)N(CCC(=O)O)c4ccccn4)ccc3n2C)cc1 [dabigatran]
share cleared through the kidneys ([6]; human, in vivo): ~80%

CC(=O)CC(c1ccccc1)c1c(O)c2ccccc2oc1=O (stereo not shown) [warfarin]
reduction of stroke (stroke): about 60%
